Consider 32 molecules from the METLIN SMRT retention time set (Domingo-Almenara et al. 2019).

Each structure is given as a SMILES string.

The series can be described thus: gradient 5% acetonitrile 3 min, to 50% in 2 min, to 85% in 15 min, held 3 min, 100 µL/min. The conditions noted are these: column: Zorbax Extend-C18 2.1 x 50 mm; eluents: water / acetonitrile, 0.1% formic acid. The procedure, abridged: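 The mobile phases were water and acetonitrile, each with 0.1% formic acid, pumped at 100 μL/min through a Zorbax Extend-C18 column (2.1 × 50 mm, 1.8 μm). Pure standards were injected as mixtures of ~100 molecules and detected by a quadrupole time-of-flight mass spectrometer in positive and negative ionization mode. Retention time came from computationally picked adduct peaks, each inspected by hand.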
As to `Fc1ccccc1C(c1nnc(-c2ccccc2)o1)N1CCN(c2ccccn2)CC1` (configuration not stated), the RP-LC retention time is 704 s.
To `Cc1cc(N2CCN(c3ccccn3)CC2)n2nc(-c3cccc(Cl)c3)c(C)c2n1` belongs 828 s.
To `CCC1=NS(=O)(=O)c2cccnc2N1c1ccc(Br)c(C)c1` belongs 986 s.
The same measure for `O=C(NC1CCCCC1)C1CCN(C(=O)c2cc(-c3ccncc3)n[nH]2)CC1`: 590 s; for `COc1ccc(NC(=O)c2cc(S(=O)(=O)N3CCCC(C)C3)cn2C)c(OC)c1` (configuration not stated): 1010 s; for `CCc1cc(=O)n(CC(=O)N(C)c2cccc(C)c2)c(-c2ccccc2)n1`: 1110 s.
`CC1CCN(C(=O)C2c3ccccc3CCN2C(=O)C(C)C)CC1` (configuration not stated): the RP-LC retention time was 883 s.
The same measure for `COc1ccccc1CNC(=O)C1CCN(c2nnc3c(Cl)cccn23)CC1`: 700 s; for `CCc1noc2nc(C)n(CC(=O)NCCc3ccccc3)c(=O)c12`: 800 s.
In turn, `COc1ccc(OC)c(NC(=O)c2cc(C3CC3)[nH]n2)c1` had an RP-LC retention time of 775 s.
`Cc1ccc(NC(=O)N2C[C@@H]3C[C@H](NS(=O)(=O)c4ccccc4)[C@H]2C3)c(C)c1` came in with an RP-LC retention time of 832 s.
To `O=C(Nc1ccc2c(c1)OCO2)c1c(O)c2cccnc2n(-c2ccccc2)c1=O` belongs 663 s; to `O=C(NCCCn1c(-c2ccncc2)nc2cccnc21)Nc1ccc(F)c(Cl)c1`, 693 s.
`COCC(=O)N1CCC2(CC1)Nc1ccc(C)c(C)c1-n1cccc12`: the RP-LC retention time worked out at 823 s.
To `Cc1ccc(Nc2nc(-c3ccccc3)c(CC(=O)O)s2)cc1` belongs 900 s; to `Cc1ccccc1CNC(=O)CCC1CCN(c2cc(NC3CC3)ncn2)CC1`, 585 s.
To `CSc1ncccc1C(=O)Nc1ccc2c(c1)CCC(=O)N2C` belongs 684 s.
The same measure for `CCCCN(C)C(=O)c1ccc2c(c1)N(CCC)C(=O)C1CCC(=O)N21` (configuration not stated): 759 s.
Take `CCC(=O)N1CCc2cc(C)c(S(=O)(=O)NCc3ccco3)cc21`: the RP-LC retention time was determined as 664 s.
The same measure for `O=C(NCCc1cccs1)c1cc2n(n1)CCCN(Cc1cccc(F)c1)C2=O`: 843 s; for `CC1CCN(C(=O)C2=NN(Cc3cccc(F)c3)c3ccccc3S2(=O)=O)CC1`: 1010 s.
To `Cc1ccc2c(=O)c3c([nH]c2c1C)CCN(CC(=O)Nc1ccc(F)c(F)c1)C3` belongs 646 s; to `Cc1ccc(Cc2nc(-c3ccc(S(=O)(=O)N4CCC(C(=O)N5CCCC5)CC4)cc3)no2)cc1`, 1060 s; to `CCOc1cc(-c2noc(-c3nnn4c3COC(c3ccc(C)cc3C)C4)n2)ccc1OC` (configuration not stated), 1250 s.
The same measure for `Cn1nc(-c2ccc(F)cc2)cc1C(=O)NCCN1CCN(C(=O)c2cccs2)CC1`: 593 s.
In turn, `CCCNc1cc(N2CCC(CCC(=O)NCc3ccc(F)cc3Cl)CC2)ncn1` had an RP-LC retention time of 727 s.
The same measure for `CCCNC(=O)CN1CCN(C(=O)c2sc3ncccc3c2-n2cccc2)CC1`: 620 s.
To `CCOc1ccc(S(=O)(=O)N2CCCC(C(=O)NCCOC)C2)cc1C` (configuration not stated) belongs 769 s; to `Cc1ccc(CNC(=O)C2(C)CCN(S(=O)(=O)c3ccc(F)cc3)CC2)cc1`, 965 s.
The same measure for `O=C(NCc1nc(-c2ccccc2)no1)c1csc(-c2cnccn2)n1`: 779 s; for `Cc1ccc(CNC(=O)CCc2c(-c3ccc(Br)cc3)nc3ccccn23)cc1`: 709 s.
Regarding `Cc1ccc(CNC(=O)c2ccc3ncnc(N4CCCC4)c3c2)o1`, the RP-LC retention time is 617 s.
